Patent US20160067247A1, “NOVEL USE” (GlaxoSmithKline Intellectual Property (No.2) Limited, priority 2012, published 2016)
Read-outs that look alike come from different tables or passages of the source.

Tested on: primary human lung fibroblasts differentiated into myofibroblasts
Assay: Pro-collagen accumulation (hydroxyproline by HPLC) in supernatants of TGFβ differentiated myofibroblasts
Type: cell-based
Settings: for inhibition at 0.003 µM / inhibition at 0.03 µM: Homo sapiens, Fibroblast
Method: Cultured non-IPF cell lines (as described in section 3.1.2) were used to study pro-collagen accumulation in cell culture supernatants, following TGF6 induced myofibroblast differentiation.
Cells were seeded at 100,000 cells per well in 12-well plates (NUNC #150628) in 1 mL complete DMEM and incubated until they reached 100% confluence (4-5 days). Medium was removed from the confluent cells and replaced with 1 mL pre-incubation medium (DMEM containing 4 mM glutamine, 50 μg/mL ascorbic acid, 0.2 mM proline and 0.4% FBS) and incubated for a further 24 hours. Fresh pre-incubation medium was added to 3 wells and immediately collected for analysis in order to determine background level (T0) of hydroxyproline present in the culture medium at the start of the incubation period. […]
Following 24 hours serum starvation, fibroblasts were stimulated with TGFβ1 (1 ng/mL, 24 hours) (R&D #101-B1) to induce myofibroblast differentiation. Subsequently TGFβ1 was either removed or replenished (by complete serum free media change±TGFβ, 1 ng/ml) and 2,4-difluoro-N-{2-(methyloxy)-5-[4-(4-pyridazinyl)-6-quinolinyl]-3 pyridinyl}benzenesulfonamide (final concentration 3 nM or 30 nM, in 0.1% DMSO) added. Dilutions of 2,4-difluoro-N-{2-(methyloxy)-5-[4-(4-pyridazinyl)-6-quinolinyl]-3 pyridinyl}benzenesulfonamide were prepared from a stock of 0.03M by serial 10-fold dilution in 0.1% DMSO and a further 1000-fold dilution. Differentiated myofibroblast cultures were incubated for further 24 and 48 hours at 37° C., 100% humidity, 10% CO2. See FIG. 1 and FIG. 2 for schematic of the experimental regimen.
At the end of each incubation time point cell supernatant was collected and frozen at −80° C. The cell layer was detached by incubating with 250 μL of 0.25% trypsin-EDTA for 5 minutes and a 1 mL suspension was made in DMEM. Cell counts were performed on the cell suspension using Sceptre […] sensor.
The cell supernatants were allowed to thaw at room temperature and proteins were precipitated overnight in 67% (v/v) ethanol at 4° C.
Precipitated proteins were recovered by vacuum filtration onto Durapore polyvinylidene difluoride (PVDF) membrane filters (pore size 0.45 μm) (type HV, Millipore Ltd., UK; # HVLP02500) and the adhering protein was washed twice with 1.5 mL ethanol (67% v/v). Filters with adherent protein were transferred to Pyrex hydrolysis tubes containing 2 mL 6M HCl. Ethanol-insoluble fractions were then hydrolysed at 110° C. for 16 h and the samples were decolourised by mixing with approx. 70 mg of charcoal and filtered onto Durapore membrane filters (pore size 0.65 μm) (type DA, Millipore Ltd., UK; DVPP02500). Aliquots (100 μl) of decolourised hydrolysate were transferred to 1.5 mL centrifuge tubes and evaporated to dryness using speed vac concentrator (Savant SPD 131DDA, Thermo Electron Corporation, Cambridge, UK).
Hydroxyproline accumulation in cell culture supernatants is used as a measure of pro-collagen production. Hydroxyproline represents approximately 12% of the primary sequence of pro-collagen and is essential for the formation of the collagen triple helix. Hydroxproline is not present in significant levels in any other proteins. Levels of hydroxyproline in cell culture hydrolysates was quantified by reverse-phase high performance liquid chromatography (HPLC) following derivitisation with 7-chloro-4-nitrobenzo-oxa-1; 3-diazole (NBD-CI) (Sigma; #17239-0050).
Hydroxyproline Standard: Standard samples of Trans-4-hydroxy-L-proline (PHPRO) Sigma; #H5534) are stored frozen at −20° C. in 10 μL (250 μM) aliquots. A 10 μL aliquot was diluted in 990 μL Milli-Q water (Milli-Q Plus; Millipore Ltd., UK) and used as standard. The final amount of Hydroxyproline (Hyp) standard loaded onto the column was 50 pmoles.
Samples: Milli-Q water (100 μL) was added to the dried aliquot of hydrolysate and left to rehydrate at 4° C. overnight. […]

COc1ncc(-c2ccc3nccc(-c4ccnnc4)c3c2)cc1NS(=O)(=O)c1ccc(F)cc1F [2,4-difluoro-N-{2-(methyloxy)-5-[4-(4-pyridazinyl)-6-quinolinyl]-3-pyridinyl}benzenesulfonamide]
inhibition at 0.003 µM (24 h, line 0110 (A), TGFβ removed, 3 nM, 24 hour, read-out: mean percent inhibition of TGFβ induced pro-collagen production): 31.6%
inhibition at 0.03 µM (24 h, line 0110 (A), TGFβ removed, 30 nM, 24 hour, read-out: mean percent inhibition of TGFβ induced pro-collagen production): 60.8%
inhibition at 0.003 µM (24 h, line 0610 (B), TGFβ removed, 3 nM, 24 hour, read-out: mean percent inhibition of TGFβ induced pro-collagen production): 26.2%
inhibition at 0.03 µM (24 h, line 0610 (B), TGFβ removed, 30 nM, 24 hour, read-out: mean percent inhibition of TGFβ induced pro-collagen production): 56.8%
inhibition at 0.003 µM (24 h, line 0610 (B), TGFβ replenished, 3 nM, 24 hour, read-out: mean percent inhibition of TGFβ induced pro-collagen production following replenishment of TGFβ): 29.1%
inhibition at 0.03 µM (24 h, line 0610 (B), TGFβ replenished, 30 nM, 24 hour, read-out: mean percent inhibition of TGFβ induced pro-collagen production following replenishment of TGFβ): 45.4%
inhibition at 0.003 µM (48 h, line 0110 (A), TGFβ removed, 3 nM, 48 hour, read-out: mean percent inhibition of TGFβ induced pro-collagen production): 48.1%
inhibition at 0.03 µM (48 h, line 0110 (A), TGFβ removed, 30 nM, 48 hour, read-out: mean percent inhibition of TGFβ induced pro-collagen production): 64%
inhibition at 0.003 µM (48 h, line 0110 (A), TGFβ replenished, 3 nM, 48 hour, read-out: mean percent inhibition of TGFβ induced pro-collagen production following replenishment of TGFβ): 6.3%
inhibition at 0.03 µM (48 h, line 0110 (A), TGFβ replenished, 30 nM, 48 hour, read-out: mean percent inhibition of TGFβ induced pro-collagen production following replenishment of TGFβ): 35.2%
inhibition at 0.003 µM (48 h, line 0610 (B), TGFβ removed, 3 nM, 48 hour, read-out: mean percent inhibition of TGFβ induced pro-collagen production): 35.6%
inhibition at 0.03 µM (48 h, line 0610 (B), TGFβ removed, 30 nM, 48 hour, read-out: mean percent inhibition of TGFβ induced pro-collagen production): 59.6%
inhibition at 0.03 µM (48 h, line 0610 (B), TGFβ replenished, 30 nM, 48 hour, read-out: mean percent inhibition of TGFβ induced pro-collagen production following replenishment of TGFβ): 37.7%
mean percent inhibition of TGFβ induced pro-collagen production following replenishment of TGFβ (line 0110 (A), TGFβ replenished, 3 nM, 24 hour): No inhibition
mean percent inhibition of TGFβ induced pro-collagen production following replenishment of TGFβ (line 0110 (A), TGFβ replenished, 30 nM, 24 hour): No inhibition
mean percent inhibition of TGFβ induced pro-collagen production following replenishment of TGFβ (line 0610 (B), TGFβ replenished, 3 nM, 48 hour): No inhibition
